From patent US20250352524A1, “PREVENTION OF METASTATIC OUTGROWTH USING TEAD INHIBITORS” (Georgetown University, priority 2024, published 2025) come the findings set out here.

“Also recorded” adds a separate entry of the source.

In the assay the test system is DCIS:DCISA4 cells. As to the kind of experiment: DCIS:DCIS-Δ4 mammary fat pad tumors in NOD/SCID mice, lung metastasis. The class given is in vivo. The conditions noted are these: for growth rate or final volume of the primary tumors: tumors resected at 4 weeks; for outgrowth of cancer cells disseminated to the lungs: immunofluorescent staining of lungs. The method, then: Parental ductal carcinoma in situ (DCIS) was mixed with genetically-modified DCIS cells expressing AIB1-Δ4 (“DCIS-Δ4”) (see Sharif et al., 2021) at a 4:1 ratio, and the mix was injected into the mammary fat pad (MFP) of the mice. One group of mice received 30 mg/kg of the TEAD inhibitor VT107 (“iTEAD”) and the other group received vehicle treatment by daily oral gavage for 4 weeks. The primary tumors were removed by survival surgery. There was no difference observed in the growth rate or final volume of the primary tumors.
Lung tissues were subjected to RNA-Seq analysis, and Gene Set Enrichment Analysis (GSEA) was used to determine altered signaling pathways upon iTEAD treatment.
To further examine the effect of TEAD inhibition on the myeloid compartment of the lung, a human breast cancer cell line MCFDCIS (DCIS) that metastasizes to the lungs when a small population of cells (DCISA4) expresses an isoform of the transcription coactivator amplified in breast cancer 1 (Sharif et al., 2021), was used. DCIS:DCISA4 cells were injected into the mammary fat pad of NOD/SCID mice. Mice were treated daily with VT107. Tumors were surgically removed at week 4 and lungs were monitored for metastases for another 4 weeks without receiving additional treatment (FIG. 13, Panel B). Mouse body weights were measured weekly throughout the course of treatment (FIG. 13, Panel C). […] All mice in the vehicle treated group developed lung metastases as previously reported (Sharif et al., 2021). […] RNA was extracted from lung tissues to further examine the host stroma affected by VT107. RNA sequencing reads from the lungs were aligned to the mouse transcriptome to shed light on the host tissue changes in response to treatment in the presence of seeded cancer cells. […] These observations again show a shift in the inflammatory phenotypes in the microenvironment which could be responsible for the halt in the metastatic outgrowth of seeded cancer cells in the treated group.
Studies in mice were reviewed and approved by the Georgetown University Animal Care and Use Committee (GUACUC). Animals were randomized to receive vehicle control (DMSO) or VT107. Treatment was formulated in 5% DMSO, 10% solutol and 85% D5W; D5W. 5% glucose and administered daily by oral gavage. Five hundred thousand cells were injected into the mammary fat pad of age-matched 8 weeks old female NOD/SCID or C57/B16 mice purchased from Charles River or Jackson Laboratory, respectively. A hundred thousand 4T1 cells were injected into the tail veins of BALB/c mice purchased from Jackson Laboratory. Experimental timelines, treatment start times and durations are indicated in the figure diagrams and figure legends. Tissues collected were preserved in RNAlater (Thermofisher, #AM7020) or fixed in 10% formalin for histology analysis.
The total RNA from tissue or cell lines was extracted using RNeasy Mini Kit (Qiagen, #74104) according to the manufacturer's instructions. Total RNA integrity was assessed with the Agilent 2100 Bioanalyzer. The library preparation and next-generation sequencing (NGS) were performed at Novogene Corporation Inc. (Sacramento, CA, USA). At least triplicate samples per experimental condition were analyzed, raw sequence reads (150 bp paired end, […] average reads/sample) were aligned to the human or mouse transcriptome using STAR, and aligned reads translated to expression counts via featurecounts, followed by a standard edgeR (RRID:SCR_012802) pipeline to identify DEGs under specific conditions. Ingenuity pathway analysis (IPA, RRID:SCR_008653) was undertaken using a list of all differentially expressed genes with a cutoff of p-value less than 0.05 to identify signaling pathways and upstream regulators.

The mark [1] stands for this setting: pathway analysis of lung RNA sequencing, VT107 vs vehicle.

Turning to VT107, the “development of lung metastases” value (30 mg/kg daily oral gavage for 4 weeks vs vehicle, H&E lung sections, listed as iTEAD) was “did not develop lung metastases; also recorded: significantly reduced”. Further, the “growth rate or final volume of the primary tumors” value is “similar” (30 mg/kg daily oral gavage for 4 weeks vs vehicle) and “no difference; also recorded: no effect” (30 mg/kg daily oral gavage for 4 weeks vs vehicle, listed as iTEAD). Further, the “outgrowth of cancer cells disseminated to the lungs” value runs as follows: (30 mg/kg daily) “failed to grow into overt metastases”; (30 mg/kg daily, listed as iTEAD) “halted outgrowth; also recorded: unable to outgrow”. Besides, the “mice with no overt lung metastases” value (30 mg/kg daily, lungs monitored 4 weeks after tumor removal, all vehicle mice developed metastases) is 4 out of 5. The “Toll-like receptor 4 (TLR4) signaling pathway in lung tissue (GSEA)” value (RNA-Seq of lung tissue, iTEAD vs vehicle) is “drop and downregulation”. In addition, the “human actin relative to mouse actin in lung tissues by qPCR” value (VT107-treated mice) was “presence of DCIS cells”. Besides, under setting [1], the “myeloid cell activating pathways, acute phase response signaling and PD-L1 immunotherapy pathways in lungs” value is “upregulation”. In addition, under setting [1], the “signaling pathways implicated in pulmonary and hepatic fibrosis, cardiac hypertrophy and liver injury in lungs” value was “downregulated”.
